The subject of the test is freeze-injured brain tissue. It is filed as in vivo, rat. The note with it: 6 days after freezing injury. An excerpt:
The rats were anaesthetized by the inhalation of isofluorane, and had their heads shaved. The skin was cut open in the mid sagittal plane on the skull. The calvarium was exposed on the left side between the bregma and the lambda. The periostium was detached from the bone, which then was rinsed. Thereafter, great care was taken to remove blood and any fluid from the calvarium as that may impair the subsequent procedure. A probe made of brass, having a cylindric 4 mm long end piece with a diameter of 3 mm, was cooled by immersion in a standardized manner in liquid nitrogen. The cooled probe was thereafter applied for 40 s on the calvarium in between the lambda and bregma, 4 mm lateral to the sagittal mid line. The probe was then removed and the skin wound sutured. The application of the freezing probe resulted transiently in that the brain tissue underlying the exposure site turn frozen. It ought to be stressed that the skull was not opened and no fractures or other signs of gross damage induced. The animals moved afterwards without any obvious problems, behaved normally and ingested food and drinking fluid close to as those untreated, after having recovered from the anaesthesia. Rats (body weight 180-350 g at the start of the experiments), male and female, were supplied with standard pelleted food and tap water prior to and after the brain injury. At the day of injury, the rat were anaesthetized and prepared as described in experiment 2. The freezing probe was applied once for 40 seconds. After suturing the skin wound in the skull and recovered from the anaesthesia, the rats were allowed to move freely. All rats received twice daily for 5 days, starting on the day of surgery, an intravenous injection of 1-10 μg per kg body weight of a synthetic peptide, being a fragment of AF, comprising amino acids 36-51, i.e. composed of 16 amino acids. It was dissolved in saline and prepared freshly prior to each injection. There was no intravenous injection of the peptide on the day of sacrifice, day 6. […] Six days after the freezing injury, the rats were sacrificed and fixed by perfusion as described. […] There were no bleedings in or on the brain. […] The penumbra appeared to be affected by minor oedema. […] Irregularly distributed swellings and beadings of axons and dendrites were sparse. […] There was, however, a variation in the extent of the neuroprotection exerted by the injected peptide.

The mark [1] stands for this setting: peptide i.v. 1-10 μg per kg twice daily for 5 days.
Setting [2] is: peptide i.v. twice daily for 5 days, vs rats of experiment 2.

With “fragment of AF, comprising amino acids 36-51: synthetic peptide, being a fragment of AF, comprising amino acids 36-51, i.e. composed of 16 amino acids (VCHSKTRSNPENNVGL; listed as Homo sapiens)”, under setting [1], the “bleedings in or on the brain” value is “no bleedings”; the “oedema in the penumbra” value was “minor oedema”; the “shallow depression of the central parts of the injured area” value is “not marked and in some cases difficult to identify for certain”. Besides, the “extent of brain injury on opening the skull bone” value (peptide i.v. 1-10 μg per kg twice daily for 5 days, vs standard pellets and tap water only) is reported as “less extensive brain injury”. In addition, the “irregularly distributed swellings and beadings of axons and dendrites” value (peptide i.v. twice daily for 5 days) is “sparse”. Under “peptide i.v. twice daily for 5 days, hippocampus”, the “proliferation of neural stem and progenitor cells in the SGZ” value was “increased proliferation”. Further, under setting [2], the “occurrence of damaged cells (light microscopy of stained sections)” value is “less extensive occurrence of damaged cells” and the “residing extravasation of blood (light microscopy)” value is “rarely any residing extravasation of blood”. Besides, under “peptide i.v. twice daily for 5 days, vs standard pellets and tap water only”, the “astrogliosis in the penumbra region” value was “not as extensive and wide-spread”.
